Measured values reported in US20060120980A1, “Novel dermatological composition using bio-activating organocatalysts” (priority 2004, published 2006).
Blank lines part the entries; values can stand above or below the molecule they belong to.

Tests used:
[1] = metal chelate; cited from earlier work
[2] = appearance of the final solution (Cosmetics, formulary consideration); type: physicochemical; settings: appearance of final solution after reaction with Cu
Source text: In certain aspects of the present invention, the catalyst system using transition metals (Cu or Fe) as trace catalytic metals, may require the presence of an optional redox agent (antioxidant) so as to produce H2O2. In order to form hydrogen peroxide, for example, it is necessary for the redox agent to reduce Cu^++ to Cu^+. […] In expanding the number of antioxidants, the following table was assembled after experimentation, based upon reactivity with Cu, the ability to reduce CoQ10 to H2CoQ10 and the appearance of the final solution (formulary consideration).

[3] = tested on: papilla-corium layer of skin; assay: bioreactive skin test (pin-head like projections, activation of the papilla-corium layer); type: in vivo; design: key: * = slight bioreactivity; *** = gross bioreactivity
Source text: In this assay, compounds are applied to the dermis of an animal and potentially bio-reactive compounds (i.e., those which might function as bio-activating organocatalysts) produce a multiplicity of very small, pin-head like projections on the epidermis produced by activation of the papilla-corium layer. […] The bioreactivity of the formula can be judged by the intensity and time of the reaction.
The formula according to the present invention which are bioreactive in a skin test show a multiplicity of very small, pin-head like projections on the epidermis produced by activation of the papilla-corium layer. […] The activation ensues for about 2-4 hours and is from slight to gross depending on the formulation and returns to the normal skin landscape. The bioreactivity of the formula can be judged by the intensity and time of the reaction.
Essentially, the skin cream formulations containing organocatalyst are tested on skin. Those compositions which are bioreactive in the skin test show a multiplicity of very small, pin-head like projections on the epidermis produced by activation of the papilla-corium layer. The activation continues for about 2-4 hours and is from slight to gross depending on the formulation and returns to the normal skin landscape. The bioreactivity of the formula can be judged by the intensity and time of the reaction.

[4] = solubility of organocatalyst in Eucerin skin cream (table comment); type: physicochemical; settings: 20 % by weight in Eucerin skin cream
Method: In order to test the relative bioreactivity of organocatalysts according to the present invention, a number of potential organocatalysts were formulated into a skin cream using Eucerin™ at concentrations ranging from 2% to 25% by weight of the final skin cream formulation. These skin creams were formulated by dissolving the organocatalyst at a desired amount into the Eucerin. The formulated compositions were then tested for skin bioreactivity according to the method previously described hereinabove.

[5] = Table 1A, 20 % by weight in Eucerin skin cream
[6] = Table 1A, 2 % by weight in Eucerin skin cream
[7] = Table 1A, 25 % by weight in Eucerin skin cream

Molecule: N[C@@H](Cc1c[nH]cn1)C(=O)O.[Fe+2] [Ferrous histidine]
- Affinity Constant [1]: 10^16

- Cosmetics [2]: ugly brown ppt.
Molecule: Vitamin E

Molecule: O=C([O-])C(O)C(O)C(=O)[O-].[Na+].[Na+] (stereo not shown) [disodium tartrate, reference compound]
- Bioreactivity [3, 5]: no reactivity

Molecule: C=C[C@H]1CN2CC[C@H]1C[C@H]2[C@H](O)c1ccnc2ccc(OC)cc12.O=S(=O)(O)O [quinine hydrosulfate, reference compound]
- Bioreactivity ([3]; Table 1, 2 % by weight): *
- Bioreactivity [3, 6]: *

Molecule: CC(C)(C)OC(=O)[C@@H]1CCCN1 [1-proline-t-butyl ester]
- Bioreactivity ([3]; Table 1, 20 % by weight): ***
- Bioreactivity [3, 5]: ***

Molecule: Copper lacate
- Affinity Constant [1]: 10^10-10^12

- Cosmetics [2]: slightly colored ppt
Molecule: O=c1[nH]c(=O)c2[nH]c(=O)[nH]c2[nH]1 [Uric acid]

- Comment (solubility) [4]: low solubility
Molecule: N[C@@H](Cc1ccccc1)C(=O)O [1-phenylalanine]
- Bioreactivity ([3]; Table 1, 20 % by weight): *
- Bioreactivity [3, 5]: *

- Cosmetics [2]: clear solution
Molecule: N[C@@H](CCC(=O)N[C@@H](CS)C(=O)NCC(=O)O)C(=O)O [Glutathione]

- Cosmetics [2]: ugly brown ppt.
Molecule: O=C(O)c1cc(O)c(O)c(O)c1 [Gallic acid]

Molecule: CC(=O)N(O)CCCCCNC(=O)CCC(=O)N(O)CCCCCNC(=O)CCC(=O)N(O)CCCCCN [Desferrioxamine]
- Affinity Constant [1]: 10^30

- Cosmetics [2]: clear solution
Molecule: N[C@@H](CS)C(=O)O [Cysteine]

- Cosmetics [2]: ugly brown ppt.
Molecule: CCCOC(=O)c1cc(O)c(O)c(O)c1 [Propyl gallate]

Molecule: O=C(O)[C@@H]1CC(O)CN1 (stereo partly shown) [1-4-hydroxyproline]
- Bioreactivity ([3]; Table 1, 2 % by weight): *
- Bioreactivity ([3]; Table 1, 25 % by weight): ***
- Bioreactivity [3, 6]: *
- Bioreactivity [3, 7]: ***

Molecule: Copper tripeptide (GHG)
- Affinity Constant [1]: 10^16

Molecule: CC(O)C(=O)[O-].CC(O)C(=O)[O-].[Fe+2] (stereo not shown) [Ferrous lactate]
- Affinity Constant [1]: 10^12

- Comment (solubility) [4]: low solubility
Molecule: CC(=O)N1CCC[C@H]1C(=O)O [N-acetyl-1-proline]
- Bioreactivity ([3]; Table 1, 20 % by weight): *
- Bioreactivity [3, 5]: *

- Cosmetics [2]: dark brown ppt.
Molecule: O=C(O)/C=C/c1ccc(O)c(O)c1 [Caffeic acid]

- Cosmetics [2]: clear solution
Molecule: O=C(O)CCCC[C@@H]1CCSS1 (racemic) [Lipoic Acid]

- Cosmetics [2]: clear solution
Molecule: CC(=O)N[C@@H](CS)C(=O)O [N-acetyl cysteine]

Molecule: O=C(O)CO [Glycolic acid]
- Affinity Constant [1]: 10^5

Molecule: O=C(O)c1ccccc1O.[Fe+3] [Ferric salicylic acid]
- Affinity Constant [1]: 10^16

Molecule: O=C([O-])CN(CCN(CC(=O)[O-])CC(=O)O)CC(=O)[O-].[Fe+3] [Ferric EDTA]
- Affinity Constant [1]: 10^25

Molecule: C=C[C@H]1C[N@@]2CC[C@H]1C[C@@H]2[C@@H](O)c1ccnc2ccc(OC)cc12 [quinidine, reference compound]
- Bioreactivity ([3]; Table 1, 2 % by weight): *
- Bioreactivity [3, 6]: *

Molecule: O=C(O)[C@@H]1CCCN1 [1-proline]
- Bioreactivity ([3]; in vivo): *** and *

Molecule: N[C@@H](Cc1c[nH]cn1)C(=O)O.[Cu] [Copper histidine]
- Affinity Constant [1]: 10^16

Molecule: Copper gluconate
- Affinity Constant [1]: 10^6

Molecule: O=C(O)C1CCCN1 (stereo not shown) [d,1-proline]
- Bioreactivity ([3]; in vivo): ***

Molecule: O=C1NCC(C(=O)O)N1 (stereo not shown) [2-imidazolidone-4-carboxylic acid]
- Bioreactivity ([3]; Table 1, 2 % by weight): *
- Bioreactivity ([3]; Table 1, 20 % by weight): ***
- Bioreactivity [3, 6]: *
- Bioreactivity [3, 5]: ***

Molecule: Oc1ccccc1O.[Fe+3] [Ferric catechol]
- Affinity Constant [1]: 10^20

Molecule: CC(O)CO (stereo not shown) [propylene glycol, reference compound]
- Bioreactivity [3, 7]: no reactivity

Molecule: O=C([O-])CN(CCN(CC(=O)[O-])CC(=O)O)CC(=O)O.[Cu+2] [Copper EDTA]
- Affinity Constant [1]: 10^23

Molecule: O=C([O-])CN(CCN(CC(=O)[O-])CC(=O)[O-])CC(=O)[O-].[Fe+2].[H+].[H+] [Ferrous EDTA]
- Affinity Constant [1]: 10^25
